Experimental data reported in patent US8551937B2, “Peptide having an extending action for half-life of object peptide in plasma” (priority 2008, dated 2013).
Where a SMILES comes first, the peptide text is derived from it. Bridges are numbered along the chain shown (N, C = ends).

How the values were obtained:
NEP = biological target: T1, NEP (Rattus norvegicus, UniProt P07861); experiment: NEP resistance in vivo: influence of NEP inhibitor on pharmacokinetic parameters after intravenous administration; conditions: rat, in vivo
T1 construct: male SD strain rats of 7 weeks age (Nippon Charles River; body weight: ca. 250 g) were used; from tissue; host or cells: whole animal: male SD rats (Nippon Charles River), in vivo
T1 sequence (P07861 1-750): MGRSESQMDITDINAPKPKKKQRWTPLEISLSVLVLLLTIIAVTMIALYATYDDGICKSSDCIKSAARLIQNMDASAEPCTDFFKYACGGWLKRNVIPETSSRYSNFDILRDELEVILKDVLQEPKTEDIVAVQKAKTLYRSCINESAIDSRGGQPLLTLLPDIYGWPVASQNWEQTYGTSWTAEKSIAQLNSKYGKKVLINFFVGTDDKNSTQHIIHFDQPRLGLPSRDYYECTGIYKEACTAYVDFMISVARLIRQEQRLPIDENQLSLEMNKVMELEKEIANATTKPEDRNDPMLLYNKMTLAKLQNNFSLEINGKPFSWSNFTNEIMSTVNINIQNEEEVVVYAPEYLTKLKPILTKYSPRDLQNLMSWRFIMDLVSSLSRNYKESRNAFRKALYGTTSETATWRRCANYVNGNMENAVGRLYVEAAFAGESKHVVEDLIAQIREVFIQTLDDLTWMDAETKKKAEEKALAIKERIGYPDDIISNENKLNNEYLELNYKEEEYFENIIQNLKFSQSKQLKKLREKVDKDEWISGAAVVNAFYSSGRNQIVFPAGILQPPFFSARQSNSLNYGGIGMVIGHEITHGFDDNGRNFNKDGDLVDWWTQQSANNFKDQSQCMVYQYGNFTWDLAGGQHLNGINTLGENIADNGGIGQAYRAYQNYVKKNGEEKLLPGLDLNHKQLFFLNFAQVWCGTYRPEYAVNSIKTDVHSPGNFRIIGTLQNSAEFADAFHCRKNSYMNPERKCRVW
Procedure: Further, NEP resistance in vivo of the native CNP-22 and chimeric CNP (B) was evaluated using the effect by the joint use with an NEP inhibitor affecting on changes in CNP immunoreactivity concentration in plasma after the intravenous administration as an index. This test was also carried out using rats into which a polyethylene tube (PE-50, manufactured by Clay […].) was inserted into thigh artery for collection of blood and rats into which a polyethylene tube (PE-10, manufactured by Clay […].) was inserted into thigh vein for administration of an NEP inhibitor under an anesthetizing condition using Nembutal. As a test system, male SD strain rats of 7 weeks age (Nippon Charles River; body weight: ca. 250 g) were used for the experiment where one group comprised 3 rats. […] Time for the administration was from 10 minutes before the administration of the native CNP-22 or the chimeric CNP (B) to completion of blood collection which was 60 minutes after the administration. The native CNP-22 and the chimeric CNP (B) each was administered into the tail vein in a dose of 20 μg/kg and the blood before starting the administration of NEP inhibitor (-10 minutes), before the administration of CNP (0 minute) and until after 60 minutes from the administration was collected by a thigh artery cannula. After a stabilizer and an anticoagulant were added to the collected blood, it was centrifuged to give plasma and the immunoreactivity concentration in the plasma was measured by the above-mentioned competitive RIA. The pharmacokinetic analysis was carried out by the same method as in Example 1.

[1] = CNP immunoreactivity concentration in plasma after administration to rats (competitive RIA), pharmacokinetic parameters (Example 2); format: in vivo, rat; conditions: rat, plasma, 0.1 mg/kg, male rats, N = 3, mean ± SD; for half-life: read-out: T½
Procedure: Pharmacokinetic parameters were calculated from the resulting changes in immunoreactivity concentrations in plasma. At that time, WinNonlin Professional Ver. 4.0.1 (manufactured by Pharsight Corporation, U.S.A.) was used as the analytical software. Method for the calculation of each parameter is mentioned as follows.
Concentration at time 0 (C0; extrapolated value, ng/mL), area under the curve for concentration in plasma vs. time (AUC; ng.min/mL) and quenching half-life (T½; minute(s)) were calculated as follows. C0 was calculated as a value at time by means of extrapolation from the changes in immunoreactivity concentration in plasma at each blood collection period. AUC was calculated by a trapezoidal method using the immunoreactivity concentrations in plasma at all measuring points (t) and an extrapolated value until the infinitive time was determined. T½ was calculated by means of a least-squares method from the inclination of a straight line connecting several points in a disappearing phase of the immunoreactivity concentration in plasma. In the case of a subcutaneous administration, C0 was not determined but the maximum concentration in plasma (Cmax; ng/mL) and the time reaching the maximum concentration in plasma (Tmax; min) were determined.
Changes in CNP immunoreactivity concentration in plasma of native CNP-22 and chimeric peptide (chimeric CNP) where a half-life-extension peptide was added to CNP were investigated.
The experiment was conducted in the same manner as in Example 1 that rats where polyethylene tube was previously inserted into thigh artery were used under an anesthetizing condition with Nembutal and male SD strain rats of 7 weeks age (purchased from Nippon Charles River) were used where one group comprised 3 rats. […] At that time, a rabbit polyclonal antibody (#2) recognizing a ring part of native CNP-22 was used as an antibody and ^125I-[Tyr^0] CNP was used as a labeling compound. Pharmacokinetic analysis was carried out by the same method as in Example 1.

[2] = biological target: T2, neutral endopeptidase (NEP) (Homo sapiens, UniProt P08473); experiment: Resistance to peptidase: stability to hNEP (HPLC residual rate); format: in vitro ADME; conditions: human, isolated enzyme neprilysin, pH 6.5
T2 construct: purchased R&D Systems, Inc., U.S.A
Procedure: The experiment was conducted in N=2 for each sample. Native CNP-22, chimeric CNP (A, B) (structure mentioned already; final concentration: 0.5 μg/mL) and 100 μL of reaction solution (medium: 20 mM MES, pH 6.5) of human type recombinant neutral endopeptidase (hNEP, manufactured by R&D Systems, Inc., U.S.A.) were prepared. […] Distilled water (100 μL) was added to the sample after boiling followed by well mixing and 50 μL thereof was analyzed in a water-acetonitrile system using a high-performance liquid chromatography system LC-10A (manufactured by Shimadzu). The analytical data were analyzed by a Chromato-Pack (CRA-10A, manufactured by Shimadzu) and area of the peak zone of unchanged substance was calculated. The area of average zone of unchanged substance when made to react at 37° C. was divided by the area of average zone of the boiled sample to calculate the residual rate of the unchanged substance after 1 hour.

in vivo = conditions: male, SD, rat, iv, 20 nmol/kg

T2 sequence (P08473 whole entry): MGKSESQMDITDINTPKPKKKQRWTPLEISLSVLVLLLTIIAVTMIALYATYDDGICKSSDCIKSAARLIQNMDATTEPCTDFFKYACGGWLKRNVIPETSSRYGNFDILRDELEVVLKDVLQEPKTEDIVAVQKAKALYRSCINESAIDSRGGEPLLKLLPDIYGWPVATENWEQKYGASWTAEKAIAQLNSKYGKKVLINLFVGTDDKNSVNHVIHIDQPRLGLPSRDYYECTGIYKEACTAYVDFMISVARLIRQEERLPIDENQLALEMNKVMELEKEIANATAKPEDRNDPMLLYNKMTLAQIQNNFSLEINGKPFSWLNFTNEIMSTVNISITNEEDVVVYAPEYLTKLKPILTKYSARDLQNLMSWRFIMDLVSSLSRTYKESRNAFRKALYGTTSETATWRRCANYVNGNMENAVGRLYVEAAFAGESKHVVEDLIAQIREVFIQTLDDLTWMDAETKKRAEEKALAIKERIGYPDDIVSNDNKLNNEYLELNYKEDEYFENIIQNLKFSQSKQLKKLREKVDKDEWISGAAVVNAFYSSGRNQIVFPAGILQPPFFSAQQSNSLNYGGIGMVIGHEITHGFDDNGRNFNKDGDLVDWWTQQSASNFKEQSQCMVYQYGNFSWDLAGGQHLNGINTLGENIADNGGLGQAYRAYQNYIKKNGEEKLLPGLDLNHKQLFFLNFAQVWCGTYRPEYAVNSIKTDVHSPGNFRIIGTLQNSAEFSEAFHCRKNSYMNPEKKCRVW

| AUC0→∞ (NEP; male, SD, iv, 0.02 mg/kg) | C0 (NEP; male, SD, iv, 0.02 mg/kg) | T½ (NEP; male, SD, iv, 0.02 mg/kg) | AUC(0-inf) (NEP; male, SD, iv, 0.02 mg/kg, AUC0→∞) | C0 (NEP; male, SD, iv, 0.02 mg/kg, C0) | half-life (NEP; male, SD, iv, 0.02 mg/kg, T½) | decomposition by NEP in the body of the rat (NEP) | AUC(0-inf) ([1]; sc, subcutaneous) | Cmax ([1]; sc, subcutaneous) | Tmax ([1]; sc, subcutaneous) | half-life ([1]; sc, subcutaneous) | AUC(0-inf) ([1]; intravenous) | C0 ([1]; intravenous, extrapolated value) | half-life ([1]; intravenous) | remaining at 1 h, 0.5 μg/mL [2] | SMILES | half-life (in vivo) |
| --- | --- | --- | --- | --- | --- | --- | --- | --- | --- | --- | --- | --- | --- | --- | --- | --- |
| 1342 ± 168 ng·min/mL | 203 ± 71 ng/mL | 12.7 ± 1.2 min | 24.5 ng·h/mL | 253 ± 15 ng/mL | 14.9 ± 3.1 min | hardly decomposed by NEP | 28.1 ng·h/mL | 32.8 ± 7.9 ng/mL | 10 min | 24 ± 9.7 min | 153 ng·h/mL | 1470 ± 749 ng/mL | 36.2 ± 2.3 min | 83.8% | CC[C@H](C)[C@@H]1NC(=O)[C@H](CCCNC(=N)N)NC(=O)[C@H](CC(=O)O)NC(=O)[C@H](CC(C)C)NC(=O)[C@H](CCCCN)NC(=O)[C@H](CC(C)C)NC(=O)CNC(=O)[C@H](Cc2ccccc2)NC(=O)[C@@H](N)CSSC[C@@H](C(=O)N[C@H](C(=O)N[C@@H](CCC(N)=O)C(=O)N[C@@H](CCC(N)=O)C(=O)N[C@@H](CCCNC(=N)N)C(=O)N[C@@H](CCCCN)C(=O)N[C@@H](CCC(=O)O)C(=O)N[C@@H](CO)C(=O)N[C@@H](CCCCN)C(=O)N[C@@H](CCCCN)C(=O)N2CCC[C@H]2C(=O)N2CCC[C@H]2C(=O)N[C@@H](C)C(=O)N[C@@H](CCCCN)C(=O)N[C@@H](CC(C)C)C(=O)N[C@@H](CCC(N)=O)C(=O)N2CCC[C@H]2C(=O)N[C@@H](CCCNC(=N)N)C(=O)O)C(C)C)NC(=O)CNC(=O)[C@H](CC(C)C)NC(=O)CNC(=O)[C@H](CO)NC(=O)[C@H](CCSC)NC(=O)[C@H](CO)NC(=O)CNC1=O [Chimeric CNP (B)] (H-CFGLKLDRIGSMSGLGCVQQRKESKKPPAKLQPR-OH; disulfide 1-17; N-terminus and C-terminus assumed) |  |
|  |  |  |  |  |  |  |  |  |  |  |  |  |  |  | CC[C@H](C)[C@@H]1NC(=O)[C@H](CCCNC(=N)N)NC(=O)[C@H](CC(=O)O)NC(=O)[C@H](CC(C)C)NC(=O)[C@H](CCCCN)NC(=O)[C@H](CC(C)C)NC(=O)CNC(=O)[C@H](Cc2ccccc2)NC(=O)[C@@H](NC(=O)CNC(=O)[C@H](CCCCN)NC(=O)[C@H](CO)NC(=O)[C@H](CC(C)C)NC(=O)CN)CSSC[C@@H](C(=O)N[C@H](C(=O)N[C@@H](CCC(N)=O)C(=O)N[C@@H](CCC(N)=O)C(=O)N[C@@H](CCCNC(=N)N)C(=O)N[C@@H](CCCCN)C(=O)N[C@@H](CC(=O)O)C(=O)N[C@@H](CO)C(=O)N[C@@H](CCCCN)C(=O)N[C@@H](CCCCN)C(=O)N2CCC[C@H]2C(=O)N2CCC[C@H]2C(=O)N[C@@H](C)C(=O)N[C@@H](CCCCN)C(=O)N[C@@H](CC(C)C)C(=O)N[C@@H](CCC(N)=O)C(=O)N2CCC[C@H]2C(=O)N[C@@H](CCCNC(=N)N)C(=O)O)C(C)C)NC(=O)CNC(=O)[C@H](CC(C)C)NC(=O)CNC(=O)[C@H](CO)NC(=O)[C@H](CCSC)NC(=O)[C@H](CO)NC(=O)CNC1=O [Chimeric CNP (J)] (H-GLSKGCFGLKLDRIGSMSGLGCVQQRKDSKKPPAKLQPR-OH; disulfide 6-22; N-terminus and C-terminus assumed) | 31.2 min |
|  |  |  |  |  |  |  |  |  |  |  |  |  |  |  | CC[C@H](C)[C@@H]1NC(=O)[C@H](CCCNC(=N)N)NC(=O)[C@H](CC(=O)O)NC(=O)[C@H](CC(C)C)NC(=O)[C@H](CCCCN)NC(=O)[C@H](CC(C)C)NC(=O)CNC(=O)[C@H](Cc2ccccc2)NC(=O)[C@@H](N)CSSC[C@@H](C(=O)N[C@@H](C)C(=O)NCC(=O)N[C@@H](CO)C(=O)N[C@H](C(=O)N[C@@H](CC(=O)O)C(=O)N[C@@H](Cc2c[nH]cn2)C(=O)N[C@@H](CCCCN)C(=O)NCC(=O)N[C@@H](CCCCN)C(=O)N[C@@H](CCC(N)=O)C(=O)N[C@@H](CCCNC(=N)N)C(=O)N[C@@H](CCCCN)C(=O)N[C@H](C(=O)N[C@H](C(=O)N[C@@H](CC(=O)O)C(=O)N[C@@H](Cc2c[nH]cn2)C(=O)N2CCC[C@H]2C(=O)N[C@@H](CCCCN)C(=O)N[C@@H](CCCNC(=N)N)C(=O)O)C(C)C)C(C)C)C(C)C)NC(=O)CNC(=O)[C@H](CC(C)C)NC(=O)CNC(=O)[C@H](CO)NC(=O)[C@H](CCSC)NC(=O)[C@H](CO)NC(=O)CNC1=O [Chimeric CNP (K)] (H-CFGLKLDRIGSMSGLGCAGSVDHKGKQRKVVDHPKR-OH; disulfide 1-17; N-terminus and C-terminus assumed) | 18 min |
